Source: patent US4409210A, “Antibiotic compound” (priority 1982, dated 1983)
In brackets after ≈: the same amount, converted by molar mass.

Tests used:
[1] = test system: Veillonella parvula A20010; test: MIC, serial two-fold dilution method (anaerobic); format: cell-based; settings: Veillonella parvula A20010; GAM agar medium; inoculum 10^7-10^8; read-out: minimum inhibitory concentration (MIC)
[2] = test system: Staphylococcus aureus A20610; test: MIC, serial two-fold dilution method (aerobic); format: cell-based; settings: Staphylococcus aureus A20610; Mueller-Hinton agar; inoculum 10^4; read-out: minimum inhibitory concentration (MIC)
[3] = test system: Staphylococcus aureus A9748; test: MIC, serial two-fold dilution method (aerobic); format: cell-based; settings: Staphylococcus aureus A9748; Mueller-Hinton agar; inoculum 10^4; read-out: minimum inhibitory concentration (MIC)
Strain G393-B445 = test: Antibiotic sensitivity, paper disc-agar diffusion method; format: cell-based, Empedobacter sp.; set-up: key: S (sensitive); R (resistant); I (intermediate); settings: nutrient agar, 2 day's incubation at 28° C., Difco discs, amount/disc per antibiotic
[4] = test system: Bacteroides fragilis A22533; test: MIC, serial two-fold dilution method (anaerobic); format: cell-based; settings: Bacteroides fragilis A22533; GAM agar medium; inoculum 10^7-10^8; read-out: minimum inhibitory concentration (MIC)
[5] = test system: Bacteroides fragilis A22053; test: MIC, serial two-fold dilution method (anaerobic); format: cell-based; settings: Bacteroides fragilis A22053; GAM agar medium; inoculum 10^7-10^8; read-out: minimum inhibitory concentration (MIC)
[6] = test system: Staphylococcus aureus A20701; test: MIC, serial two-fold dilution method (aerobic); format: cell-based; settings: Staphylococcus aureus A20701; Mueller-Hinton agar; inoculum 10^4; read-out: minimum inhibitory concentration (MIC)
[7] = test system: Veillonella alcalescens A21914-1; test: MIC, serial two-fold dilution method (anaerobic); format: cell-based; settings: Veillonella parvula, A219141; Veillonella alcalescens A21914-1; GAM agar medium; inoculum 10^7-10^8; read-out: minimum inhibitory concentration (MIC)
[8] = test system: Staphylococcus aureus A20239; test: MIC, serial two-fold dilution method (aerobic); format: cell-based; settings: Staphylococcus aureus A20239; Mueller-Hinton agar; inoculum 10^4; read-out: minimum inhibitory concentration (MIC)
[9] = test system: Staphylococcus aureus A9856; test: MIC, serial two-fold dilution method (aerobic); format: cell-based; settings: Staphylococcus aureus A9856; Mueller-Hinton agar; inoculum 10^4; read-out: minimum inhibitory concentration (MIC)
[10] = test system: Clostridium septicum A21869; test: MIC, serial two-fold dilution method (anaerobic); format: cell-based; settings: Clostridium septicum A21869; GAM agar medium; inoculum 10^7-10^8; read-out: minimum inhibitory concentration (MIC)
Method: (§1) The minimum inhibitory concentration (MIC) of Bu-2517 was determined for a variety of aerobic and anaerobic bacteria by the serial two-fold dilution method using a multi-inoculating apparatus. Mueller-Hinton agar was generally used for aerobic bacteria, GC medium (Eiken) for fastidious aerobic organisms such as streptococci, Neisseria and Haemophilus species, and GAM agar medium (Nissui) for anaerobic bacteria. The inoculum size was adjusted to 10^6 CFU/ml for streptococci, Neisseria and Haemophilus species, 10^4 for other aerobic bacteria and 10^7 -10^8 for all anaerobic organisms. Amphomycin, ampicillin, chloramphenicol, clindamycin, erthromycin, kanamycin and vancomycin were used as reference antibiotics.

[11] = test system: Clostridium chauvoei A9561; test: MIC, serial two-fold dilution method (anaerobic); format: cell-based; settings: Clostridium chauvoei A9561; GAM agar medium; inoculum 10^7-10^8; read-out: minimum inhibitory concentration (MIC)
Method: as §1

[12] = test system: Clostridium difficile A21675; test: MIC, serial two-fold dilution method (anaerobic); format: cell-based; settings: Clostridioides difficile; Clostridium difficile A21675; GAM agar medium; inoculum 10^7-10^8; read-out: minimum inhibitory concentration (MIC)
Method: as §1

[13] = test system: Clostridium difficile A21972; test: MIC, serial two-fold dilution method (anaerobic); format: cell-based; settings: Clostridioides difficile; Clostridium difficile A21972; GAM agar medium; inoculum 10^7-10^8; read-out: minimum inhibitory concentration (MIC)
Method: as §1

[14] = test system: Fusobacterium necrophorum A20013; test: MIC, serial two-fold dilution method (anaerobic); format: cell-based; settings: Fusobacterium necrophorum A20013; GAM agar medium; inoculum 10^7-10^8; read-out: minimum inhibitory concentration (MIC)
[15] = test system: Staphylococcus aureus A9601; test: MIC, serial two-fold dilution method (aerobic); format: cell-based; settings: Staphylococcus aureus A9601; Mueller-Hinton agar; inoculum 10^4; read-out: minimum inhibitory concentration (MIC)
[16] = test system: Bacteroides fragilis A22695; test: MIC, serial two-fold dilution method (anaerobic); format: cell-based; settings: Bacteroides fragilis A22695; GAM agar medium; inoculum 10^7-10^8; read-out: minimum inhibitory concentration (MIC)
[17] = test system: Propionibacterium acnes A22650; test: MIC, serial two-fold dilution method (anaerobic); format: cell-based; settings: Cutibacterium acnes; Propionibacterium acnes A22650; GAM agar medium; inoculum 10^7-10^8; read-out: minimum inhibitory concentration (MIC)
[18] = test system: Bacteroides fragilis A20928-1; test: MIC, serial two-fold dilution method (anaerobic); format: cell-based; settings: A209281; Bacteroides fragilis A20928-1; GAM agar medium; inoculum 10^7-10^8; read-out: minimum inhibitory concentration (MIC)
[19] = test system: Peptostreptococcus intermedius A21881; test: MIC, serial two-fold dilution method (anaerobic); format: cell-based; settings: Peptostreptococcus intermedius A21881; GAM agar medium; inoculum 10^7-10^8; read-out: minimum inhibitory concentration (MIC)
Proteus vulgaris A9436 = test: MIC, serial two-fold dilution method (aerobic); format: cell-based; settings: Proteus vulgaris A9436; Mueller-Hinton agar; inoculum 10^4; read-out: minimum inhibitory concentration (MIC)
[20] = test system: Bacteroides fragilis CUH-9; test: MIC, serial two-fold dilution method (anaerobic); format: cell-based; settings: CUH9; Bacteroides fragilis CUH-9; GAM agar medium; inoculum 10^7-10^8; read-out: minimum inhibitory concentration (MIC)
[21] = test system: Bacteroides fragilis A20929; test: MIC, serial two-fold dilution method (anaerobic); format: cell-based; settings: Bacteroides fragilis A20929; GAM agar medium; inoculum 10^7-10^8; read-out: minimum inhibitory concentration (MIC)
Escherichia coli NIHJ = test: MIC, serial two-fold dilution method (aerobic); format: cell-based; settings: Escherichia coli NIHJ; Mueller-Hinton agar; inoculum 10^4; read-out: minimum inhibitory concentration (MIC)
[22] = test system: Clostridium perfringens A9635; test: microbe, parasite or virus in culture; format: cell-based; settings: Clostridium perfringens, A9635, read-out: minimum inhibitory concentration (MIC)
[23] = test system: Staphylococcus aureus #193; test: MIC, serial two-fold dilution method (aerobic); format: cell-based; settings: Staphylococcus aureus #193; Mueller-Hinton agar; inoculum 10^4; read-out: minimum inhibitory concentration (MIC)

| SMILES | MIC [1] [µg/mL] | MIC [2] [µg/mL] | MIC [3] [µg/mL] | Sensitivity Strain G393-B445 (Strain G393-B445) | MIC [4] [µg/mL] | MIC [5] [µg/mL] | MIC [6] [µg/mL] | MIC [7] [µg/mL] | MIC [8] [µg/mL] | MIC [9] [µg/mL] | MIC [10] [µg/mL] | MIC [11] [µg/mL] | MIC [12] [µg/mL] | MIC [13] [µg/mL] | MIC [14] [µg/mL] | MIC [15] [µg/mL] | MIC [16] [µg/mL] | MIC [17] [µg/mL] | MIC [18] [µg/mL] | MIC [19] [µg/mL] | other results |
| --- | --- | --- | --- | --- | --- | --- | --- | --- | --- | --- | --- | --- | --- | --- | --- | --- | --- | --- | --- | --- | --- |
| CC1(C)S[C@@H]2[C@H](NC(=O)[C@H](N)c3ccccc3)C(=O)N2[C@H]1C(=O)O [Ampicillin] | 0.4 (≈ 1.14 µM) | 12.5 (≈ 35.8 µM) | 25 (≈ 71.5 µM) | S | > 100 | 6.3 (≈ 18 µM) | 25 (≈ 71.5 µM) | 0.025 (≈ 0.0715 µM) | 1.6 (≈ 4.58 µM) | 0.05 (≈ 0.143 µM) | 0.8 (≈ 2.29 µM) | 0.4 (≈ 1.14 µM) | 1.6 (≈ 4.58 µM) | 0.2 (≈ 0.572 µM) | > 100 | 0.4 (≈ 1.14 µM) | > 100 | 0.05 (≈ 0.143 µM) | 0.2 (≈ 0.572 µM) | 0.1 (≈ 0.286 µM) | MIC (Proteus vulgaris A9436): 0.4 µg/mL (≈ 1.14 µM); MIC [20]: 3.1 µg/mL (≈ 8.87 µM); MIC [21]: 0.8 µg/mL (≈ 2.29 µM); MIC (Escherichia coli NIHJ): 0.4 µg/mL (≈ 1.14 µM); MIC [22]: 0.2 µg/mL (≈ 0.572 µM); MIC [23]: 1.6 µg/mL (≈ 4.58 µM) |
| CC[C@H]1OC(=O)[C@H](C)[C@@H](O[C@H]2C[C@@](C)(OC)[C@@H](O)[C@H](C)O2)[C@H](C)[C@@H](O[C@@H]2O[C@H](C)C[C@H](N(C)C)[C@H]2O)[C@](C)(O)C[C@@H](C)C(=O)[C@H](C)[C@@H](O)[C@]1(C)O [Erythromycin] | 3.1 (≈ 4.22 µM) | > 100 | 0.4 (≈ 0.545 µM) | S | 0.4 (≈ 0.545 µM) | 3.1 (≈ 4.22 µM) | > 100 | 0.2 (≈ 0.273 µM) | 12.5 (≈ 17 µM) | 0.2 (≈ 0.273 µM) | 0.8 (≈ 1.09 µM) | 1.6 (≈ 2.18 µM) | > 100 | 3.1 (≈ 4.22 µM) | > 100 | 0.4 (≈ 0.545 µM) | 3.1 (≈ 4.22 µM) | < 0.0063 | 0.013 (≈ 0.0177 µM) | 0.4 (≈ 0.545 µM) | MIC (Proteus vulgaris A9436): 100 µg/mL (≈ 136 µM); MIC [20]: 6.3 µg/mL (≈ 8.58 µM); MIC [21]: 1.6 µg/mL (≈ 2.18 µM); MIC (Escherichia coli NIHJ): 100 µg/mL (≈ 136 µM); MIC [22]: 0.8 µg/mL (≈ 1.09 µM); MIC [23]: 0.4 µg/mL (≈ 0.545 µM) |
| O=C(N[C@H](CO)[C@H](O)c1ccc([N+](=O)[O-])cc1)C(Cl)Cl [Chloramphenicol] | 3.1 (≈ 9.59 µM) | 50 (≈ 155 µM) | 6.3 (≈ 19.5 µM) | S | 3.1 (≈ 9.59 µM) | 3.1 (≈ 9.59 µM) | 50 (≈ 155 µM) | 1.6 (≈ 4.95 µM) | 6.3 (≈ 19.5 µM) | 3.1 (≈ 9.59 µM) | 6.3 (≈ 19.5 µM) | 6.3 (≈ 19.5 µM) | 3.1 (≈ 9.59 µM) | 3.1 (≈ 9.59 µM) | 6.3 (≈ 19.5 µM) | 6.3 (≈ 19.5 µM) | 3.1 (≈ 9.59 µM) | 0.4 (≈ 1.24 µM) | 3.1 (≈ 9.59 µM) | 3.1 (≈ 9.59 µM) | MIC (Proteus vulgaris A9436): 3.1 µg/mL (≈ 9.59 µM); MIC [20]: 1.6 µg/mL (≈ 4.95 µM); MIC [21]: 3.1 µg/mL (≈ 9.59 µM); MIC (Escherichia coli NIHJ): 0.8 µg/mL (≈ 2.48 µM); MIC [22]: 3.1 µg/mL (≈ 9.59 µM); MIC [23]: 3.1 µg/mL (≈ 9.59 µM) |
